In paper PMC6982974, “Structure-Based Virtual Screening and Biological Evaluation of Peptide Inhibitors for Polo-Box Domain” (Molecules, 2019):
Where two headings read alike, the source gives them in different places. Non-standard residues stand in square brackets, D forms with d. Residues, ends and D or L forms follow the SMILES beside them. Phe(3,4-Cl2) = N[C@@H](Cc1ccc(Cl)c(Cl)c1)C(=O)O; pT = C[C@@H](OP(=O)(O)O)[C@H](N)C(=O)O

How the values were obtained:
Format in all cases: binding
[1] = molecular target: T1, human PLK1-PBD protein (Homo sapiens, UniProt P53350); assay: Competitive fluorescence polarization (FP) assay, PLK1-PBD inhibition
T1 construct: a C-terminal polo-box domain (PBD)
Procedure: (§1) To test the binding ability of 9 peptides to the PLK1-PBD, a competitive fluorescence polarization (FP) assay was performed (Table S1).
(§2) A total of 20 μL of 200 nM human PLK1-PBD protein in phosphate-buffered saline (PBS, pH 7.4) was mixed with 20 μL of tested peptides at various concentrations in each well of a 384-well black bottom plate (Corning 3575, Thermo Scientific, Massachusetts, USA). Then, 20 μL of 30 nM probe was added to each well. The plate was shaken at room temperature for 40 min. The polarization values in millipolarization units (mP) were measured at excitation/emission wave lengths of 485/535 nm using a SpectraMax Paradigm Multi-Mode Detection Platform (Molecular-Devices, Tokyo, Japan). The percentage inhibition of the tested peptides at each concentration was defined as […] 1 − (Pobs − Pmin)/(Pmax − Pmin). Pmax is the polarization of the wells containing PLK1-PBD and the probe, Pmin is the polarization of the free probe, and the Pobs is the polarization for the wells containing the peptides with a series of concentrations. According to a previously reported method, FITC-GPMQSpTPLNG-OH was used as the fluorescein-labeled peptide, which was dissolved in dimethyl sulfoxide (DMSO) and the final optimized concentration was set at 20 nM. Phosphopeptides used for competition binding assays were dissolved in assay buffer. The buffer is made up of 50 mM NaCl, 10 mM Tris (pH 8.0), 1 mM EDTA and 0.1% Nonidet P-40. We further performed the sensitivity by synthesizing two fluorescent probes, FITC-GPMQTSpTPKNG-OH for PLK2-PBD and FITC-GPLATSpTPKNG-OH for PLK3-PBD, respectively. All experiments were performed in triplicate and the data were analyzed using GraphPad Prism 6.0 software (GraphPad Software, San Diego, CA, USA).

[2] = molecular target: T2, PLK2-PBD (Homo sapiens, UniProt Q9NYY3); assay: Competitive fluorescence polarization (FP) assay, selectivity vs PLK2-PBD
T2 sequence (Q9NYY3 355-685 limits assumed): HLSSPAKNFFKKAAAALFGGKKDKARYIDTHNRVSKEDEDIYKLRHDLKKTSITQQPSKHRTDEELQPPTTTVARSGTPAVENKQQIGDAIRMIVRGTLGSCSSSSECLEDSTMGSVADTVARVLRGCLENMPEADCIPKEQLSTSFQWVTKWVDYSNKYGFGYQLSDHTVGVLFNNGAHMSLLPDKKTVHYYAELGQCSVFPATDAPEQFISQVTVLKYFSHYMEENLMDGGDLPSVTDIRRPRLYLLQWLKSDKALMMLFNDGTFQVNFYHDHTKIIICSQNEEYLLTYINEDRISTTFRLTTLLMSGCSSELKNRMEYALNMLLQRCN
Procedure: as §1
as §2, with “According to a previously reported method, FITC-GPMQSpTPLNG-OH was used as the fluorescein-labeled peptide, which was dissolved in dimethyl sulfoxide (DMSO) and the final optimized concentration was set at 20 nM. Phosphopeptides used for competition binding assays were dissolved in assay buffer. The buffer is made up of 50 mM NaCl, 10 mM Tris (pH 8.0), 1 mM EDTA and 0.1% Nonidet P-40. We further performed the sensitivity by synthesizing two fluorescent probes, FITC-GPMQTSpTPKNG-OH for PLK2-PBD and FITC-GPLATSpTPKNG-OH for PLK3-PBD, respectively.” left out

[3] = molecular target: T3, PLK3-PBD (Homo sapiens, UniProt Q9H4B4); assay: Competitive fluorescence polarization (FP) assay, selectivity vs PLK3-PBD
T3 sequence (Q9H4B4 335-646 limits assumed): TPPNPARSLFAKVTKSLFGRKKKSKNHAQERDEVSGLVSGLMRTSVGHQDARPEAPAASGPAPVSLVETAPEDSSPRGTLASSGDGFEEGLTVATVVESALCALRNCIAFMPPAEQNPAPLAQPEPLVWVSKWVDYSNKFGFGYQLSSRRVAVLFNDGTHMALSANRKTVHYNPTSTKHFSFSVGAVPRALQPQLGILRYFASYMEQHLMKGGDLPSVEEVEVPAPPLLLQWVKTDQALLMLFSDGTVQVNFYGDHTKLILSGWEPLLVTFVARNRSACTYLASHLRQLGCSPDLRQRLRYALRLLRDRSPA
Procedure: as §1
as §2, with “According to a previously reported method, FITC-GPMQSpTPLNG-OH was used as the fluorescein-labeled peptide, which was dissolved in dimethyl sulfoxide (DMSO) and the final optimized concentration was set at 20 nM. Phosphopeptides used for competition binding assays were dissolved in assay buffer. The buffer is made up of 50 mM NaCl, 10 mM Tris (pH 8.0), 1 mM EDTA and 0.1% Nonidet P-40. We further performed the sensitivity by synthesizing two fluorescent probes, FITC-GPMQTSpTPKNG-OH for PLK2-PBD and FITC-GPLATSpTPKNG-OH for PLK3-PBD, respectively.” left out

[4] = probe FITC-GPMQSpTPLNG-OH, room temperature 40 min, performed in triplicate, read-out: IC50
[5] = at 1 μM inhibitor concentration

T1 sequence (P53350 326-603 limits assumed): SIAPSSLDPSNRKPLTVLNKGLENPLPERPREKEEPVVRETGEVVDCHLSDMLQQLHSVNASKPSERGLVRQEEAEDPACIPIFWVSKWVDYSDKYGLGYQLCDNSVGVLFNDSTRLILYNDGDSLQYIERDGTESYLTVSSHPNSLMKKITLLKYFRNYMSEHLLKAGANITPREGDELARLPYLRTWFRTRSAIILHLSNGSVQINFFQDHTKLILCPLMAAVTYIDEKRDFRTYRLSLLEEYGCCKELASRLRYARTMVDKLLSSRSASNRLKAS

Row | Compound | IC50 [1, 4] [nM] | also measured
1 | CC[C@H](C)[C@H](NC(=O)[C@H](C)NC(=O)[C@@H](NC(=O)[C@H](CO)NC(=O)[C@H](Cc1c[nH]cn1)NC(=O)[C@H](CC(C)C)NC(=O)[C@@H]1CCCN1C(=O)[C@@H]1CCCN1C(=O)[C@H](CCC(=O)O)NC(=O)[C@@H](N)Cc1ccc(O)cc1)[C@@H](C)OP(=O)(O)O)C(=O)NCC(=O)O [Peptide 1] (H-YEPPLHS[pT]AIG-OH) | 320 ± 20 | 
2 | CC[C@H](C)[C@H](NC(=O)[C@H](C)NC(=O)[C@@H](NC(=O)[C@H](CO)NC(=O)[C@H](Cc1c[nH]cn1)NC(=O)[C@H](CC(C)C)NC(=O)[C@@H]1CCCN1C(=O)[C@@H]1CCCN1C(=O)[C@H](CC(=O)O)NC(=O)[C@@H](N)Cc1c[nH]c2ccccc12)[C@@H](C)OP(=O)(O)O)C(=O)O [Peptide 2] (H-WDPPLHS[pT]AI-OH) | 190 ± 10 | 
3 | CC[C@H](C)[C@H](NC(=O)[C@H](C)NC(=O)[C@@H](NC(=O)[C@H](CO)NC(=O)[C@H](Cc1c[nH]cn1)NC(=O)[C@H](CC(C)C)NC(=O)[C@@H]1CCCN1C(=O)[C@@H]1CCCN1C(=O)[C@H](CCC(=O)O)NC(=O)[C@@H](N)Cc1ccccc1)[C@@H](C)OP(=O)(O)O)C(=O)O [Peptide 3] (H-FEPPLHS[pT]AI-OH) | 290 ± 20 | 
4 | CC(C)C[C@H](NC(=O)[C@@H]1CCCN1C(=O)[C@@H]1CCCN1C(=O)[C@H](CCC(=O)O)NC(=O)[C@@H](N)Cc1ccccc1)C(=O)N[C@@H](Cc1c[nH]cn1)C(=O)N[C@@H](CO)C(=O)N[C@H](C(=O)N[C@@H](C)C(=O)NCC(=O)O)[C@@H](C)OP(=O)(O)O [Peptide 4] (H-FEPPLHS[pT]AG-OH) | 160 ± 20 | 
5 | CC(C)C[C@H](NC(=O)[C@@H]1CCCN1C(=O)[C@@H]1CCCN1C(=O)[C@H](CC(N)=O)NC(=O)[C@@H](N)Cc1ccc(Cl)c(Cl)c1)C(=O)N[C@@H](Cc1c[nH]cn1)C(=O)N[C@@H](CO)C(=O)N[C@H](C(=O)N[C@@H](C)C(=O)O)[C@@H](C)OP(=O)(O)O [Peptide 5] (H-[Phe(3,4-Cl2)]NPPLHS[pT]A-OH) |  | IC50 ([1]; triplicates, mean ± SD of three data sets, read-out: IC50 PLK1-PBD): 70 nM; IC50 ([2]; Table S2, probe FITC-GPMQTSpTPKNG-OH, triplicates): > 1000 nM; inhibition at 1 µM [2, 5]: ≤ 10%; IC50 ([3]; Table S2, probe FITC-GPLATSpTPKNG-OH, triplicates): > 1000 nM; inhibition at 1 µM [3, 5]: ≤ 10%
6 | CC(C)C[C@H](NC(=O)[C@@H]1CCCN1C(=O)[C@@H]1CCCN1C(=O)[C@H](C)NC(=O)[C@@H](N)Cc1c[nH]c2ccccc12)C(=O)N[C@@H](Cc1c[nH]cn1)C(=O)N[C@@H](CO)C(=O)N[C@H](C(=O)N[C@@H](C)C(=O)N[C@@H](CCCCN)C(=O)O)[C@@H](C)OP(=O)(O)O [Peptide 6] (H-WAPPLHS[pT]AK-OH) | 350 ± 110 | 
7 | CC(C)C[C@H](NC(=O)[C@@H]1CCCN1C(=O)[C@@H]1CCCN1C(=O)[C@H](CCCCN)NC(=O)[C@@H](N)Cc1c[nH]c2ccccc12)C(=O)N[C@@H](Cc1c[nH]cn1)C(=O)N[C@@H](CO)C(=O)N[C@H](C(=O)N[C@@H](C)C(=O)NCC(=O)O)[C@@H](C)OP(=O)(O)O [Peptide 7] (H-WKPPLHS[pT]AG-OH) | 420 ± 200 | 
8 | CC(C)C[C@H](NC(=O)[C@@H]1CCCN1C(=O)[C@@H]1CCCN1C(=O)[C@H](CCCCN)NC(=O)[C@@H](N)Cc1c[nH]cn1)C(=O)N[C@@H](Cc1c[nH]cn1)C(=O)N[C@@H](CO)C(=O)N[C@H](C(=O)N[C@@H](C)C(=O)O)[C@@H](C)OP(=O)(O)O [Peptide 8] (H-HKPPLHS[pT]A-OH) | 610 ± 320 | 
9 | CC(C)C[C@H](NC(=O)[C@@H]1CCCN1C(=O)[C@@H]1CCCN1C(=O)[C@H](CCC(N)=O)NC(=O)[C@@H](N)Cc1c[nH]cn1)C(=O)N[C@@H](Cc1c[nH]cn1)C(=O)N[C@@H](CO)C(=O)N[C@H](C(=O)N[C@@H](C)C(=O)O)[C@@H](C)OP(=O)(O)O [Peptide 9] (H-HQPPLHS[pT]A-OH) | 720 ± 240 | 
10 | CSCC[C@H](NC(=O)[C@@H]1CCCN1C(=O)CNC(=O)[C@H](C)NC(=O)[C@@H](N)CCSC)C(=O)N[C@@H](CCC(N)=O)C(=O)N[C@@H](CO)C(=O)N[C@H](C(=O)N1CCC[C@H]1C(=O)N[C@@H](CC(C)C)C(=O)N[C@@H](CC(N)=O)C(=O)NCC(=O)N[C@@H](C)C(=O)N[C@@H](CCCCN)C(=O)N[C@@H](CCCCN)C(=O)O)[C@@H](C)OP(=O)(O)O [Polo b oxtide, reference compound] (H-MAGPMQS[pT]PLNGAKK-OH) | 7920 ± 1030 | 
